What was measured:
[1] = photochromic response of test squares on an optical bench (sensitivity, saturation optical density, bleach rate); format: physicochemical; conditions: for ΔOD @ SATURATION: UV exposure 20 minutes; for ΔOD @ SATURATION / ΔOD/MIN SENSITIVITY: 75° F. (23.9° C.); for ΔOD/MIN SENSITIVITY: first five seconds of UV exposure, expressed per minute; for Bleach Rate (T1/2): room temperature (75° F., 23.9° C.) after removal of activating light
Description: (§1) Testing was done with the photochromic naphthopyrans of the Examples incorporated or imbibed into test square polymerizates by one of two different methods. In Method I, the photochromic naphthopyrans of the Examples were incorporated into polymeric samples. The quantity of naphthopyran calculated to yield a 1.5 times 10^-3 molal solution was added to a flask containing 50 grams of a monomer blend of 4 parts ethoxylated bisphenol A dimethacrylate (BPA 2EO DMA), 1 part poly(ethyleneglycol) 600 dimethacrylate, and 0,033 weight percent 2,2'-azobis(2-methyl propionitrile) (AIBN). The naphthopyrans were dissolved into the monomer blend by stirring and gentle heating, if necessary. After a clear solution was obtained, it was poured into a flat sheet mold having the interior dimensions of 2.2 mm×6 inches (15.24 cm)×6 inches (15.24 cm). The mold was sealed and placed in a horizontal air flow, programmable oven set to increase the temperature from 40° C. to 95° C. over a 5 hour interval, hold the temperature at 95° C. for 3 hours and then lower it to 60° C. for at least 2 hours before the end of the curing cycle. After the molds were opened, the polymer sheets were cut using a diamond blade saw into 2 inch (5.1 centimeters) test squares.
(§2) In Method II, the photochromic naphthopyran was imbibed into test square polymerizates prepared from a diethylene glycol bis(allyl carbonate) composition. The test squares measured 1/8 inch (0.3 centimeters)×2 inches (5.1 centimeters)×2 inches (5.1 centimeters). In the imbibition process, the photochromic naphthopyran was dissolved to form a 10 weight percent solution in a 1:9 mixture of ethyl cellulose:toluene. The solution was then spin coated onto the test squares and allowed to dry. […] After cooling, the ethyl cellulose/toluene resin film was removed from the test squares by washing with acetone.
The photochromic test squares were tested for photochromic response rates on an optical bench. […] The bench was fitted with a 150 watt Xenon arc lamp, a remote controlled shutter, a copper sulfate bath acting as a heat sink for the arc lamp, a Schott WG-320 nm cut-off filter which removes short wavelength radiation; neutral density filter(s) and a sample holder in which the square to be tested was inserted. A collimated beam of light from a tungsten lamp was passed through the square at a small angle normal to the square. After passing through the square, the light from the tungsten lamp was directed through a photopic filter attached to a detector. The photopic filter passes wavelengths such that the detector mimics the response of the human eye. The output signals from the detector(s) were processed by a radiometer.
Change in optical density (ΔOD) was determined by inserting a test square in the bleached state into the sample holder, adjusting the transmittance scale to 100%, opening the shutter from the Xenon lamp to provide ultraviolet radiation to change the test square from the bleached state to an activated (i.e., darkened) state, measuring the transmittance in the activated state, and calculating the change in optical density according to the formula ΔOD=log(100/%Ta) where %Ta is the percent transmittance in the activated state and the logarithm is to the base 10.
(§3) The ΔOD/Min, which represents the sensitivity of the photochromic compound's response to UV light, was measured over the first five (5) seconds of UV exposure, then expressed on a per minute basis. The saturation optical density (OD) was taken under identical conditions as the ΔOD/Min, except UV exposure was continued for 20 minutes for the examples in Table 1. The lambda max reported in Table 1 is the wavelength in the visible spectrum at which the maximum absorption of the activated (colored) form of the photochromic compound in a diethylene glycol bis(allyl carbonate) composition occurs.

[2] = lambda max of the activated (colored) form in the visible spectrum; format: physicochemical; set-up: unit not given here; conditions: wavelength of maximum absorption of the activated form, in a diethylene glycol bis(allyl carbonate) composition
Description: as §1
as §2, with “dry. Samples were then heated in a hot-air oven at 135°-155°C. for a period of time sufficient to thermally transfer the photochromic into the test squares.” for “dry.”
as §3, with “occurs. The Bleach Rate (T 1/2) is the time interval in seconds for the absorbance of the activated form of the naphthopyran in the test squares to reach one half the highest absorbance at room temperature (75° F., 23.9° C.) after removal of the source of activating light.” for “occurs.”

[3] = Method II (imbibed) test square

| SMILES | ΔOD @ SATURATION ([1]; Method I test square) | ΔOD/MIN SENSITIVITY ([1]; Method I test square) | Bleach Rate (T1/2) ([1]; Method I test square) | LAMBDA MAX (VISIBLE) [2] | ΔOD @ SATURATION [1, 3] | ΔOD/MIN SENSITIVITY [1, 3] | Bleach Rate (T1/2) [1, 3] |
| --- | --- | --- | --- | --- | --- | --- | --- |
| COC(=O)c1c2c(c3ccccc3c1O)OC(c1ccccc1)(c1ccc(N3CCOCC3)cc1)C=C2 (centres unmarked) [Example 1, 2-(4-morpholinophenyl)-2-phenyl-5-methoxycarbonyl-6-hydroxy-2H-naphtho[1,2-b]pyran] | 1.36 | 0.64 ΔOD/MIN | 3.22 min | 511 | – | – | – |
| COC(=O)c1c2c(c3ccccc3c1OC)OC(c1ccccc1)(c1ccc(N3CCOCC3)cc1)C=C2 (centres unmarked) [Example 2, 2-(4-morpholinophenyl)-2-phenyl-5-methoxycarbonyl-6-methoxy-2H-naphtho[1,2-b]pyran] | 0.95 | 0.29 ΔOD/MIN | 4.87 min | 541 | – | – | – |
| COC(=O)c1c2c(c3ccccc3c1OC(C)=O)OC(c1ccccc1)(c1ccc(N3CCOCC3)cc1)C=C2 (centres unmarked) [Example 3, 2-(4-morpholinophenyl)-2-phenyl-5-methoxycarbonyl-6-acetoxy-2H-naphtho[1,2-b]pyran] | 0.31 | 0.24 ΔOD/MIN | 1.47 min | 545 | – | – | – |
| CCn1c2ccccc2c2ccc(C3(c4ccccc4)C=Cc4c(C(=O)OC)c(OC(C)=O)c5ccccc5c4O3)cc21 (centres unmarked) [Example 4, 2-(9-ethylcarbazol-2-yl)-2-phenyl-5-methoxycarbonyl-6-acetoxy-2H-naphtho[1,2-b]pyran] | – | – | – | 528 | 0.46 | 0.67 ΔOD/MIN | 4.5 min |
| COC(=O)c1c2c(c3ccccc3c1OC(C)=O)OC(c1ccccc1)(c1ccc3c4ccccc4n(-c4ccccc4)c3c1)C=C2 (centres unmarked) [Example 5, 2-(9-phenylcarbazol-2-yl)-2-phenyl-5-methoxycarbonyl-6-acetoxy-2H-naphtho[1,2-b]pyran] | 0.88 | 0.31 ΔOD/MIN | 1.17 min | 520 | – | – | – |
| COC(=O)c1c2c(c3ccccc3c1OC(C)=O)OC(c1ccccc1)(c1ccc(N(C)C)cc1)C=C2 (centres unmarked) [Example 6, 2-(4-dimethylaminophenyl)-2-phenyl-5-methoxycarbonyl-6-acetoxy-2H-naphtho[1,2-b]pyran] | 0.30 | 0.27 ΔOD/MIN | 1.17 min | 591 | – | – | – |
| COC(=O)c1c2c(c3ccccc3c1C)OC(c1ccccc1)(c1ccc(N(C)C)cc1)C=C2 (centres unmarked) [Example 7, 2-(4-dimethylaminophenyl)-2-phenyl-5-methoxycarbonyl-6-methyl-2H-naphtho[1,2-b]pyran] | 0.51 | 0.20 ΔOD/MIN | 3.33 min | 584 | – | – | – |
| COC(=O)c1c2c(c3ccccc3c1OC(C)=O)OC(c1ccc(N(C)C)cc1)(c1ccc(N(C)C)cc1)C=C2 [Example 8, 2,2-bis (4-dimethylaminophenyl)-5-methoxycarbonyl-6-acetoxy-2H-naphtho[1,2-b]pyran] | 0.07 | 0.16 ΔOD/MIN | 0.317 min | 618 | – | – | – |

Reference: patent publication US5658500A, “Substituted naphthopyrans” (Transitions Optical, Inc., priority 1995, dated 1997)
